Experimental data taken from US10829520B2, “Beta-hairpin peptidomimetics” (POLYPHOR AG, priority 2015, dated 2020).
Where two headings read alike, the source gives them in different places. Where a SMILES comes first, the peptide text is derived from it. Bridges are numbered along the chain shown (N, C = ends). [ ]: non-standard residue; d: D form. Tle = CC(C)(C)[C@H](N)C(=O)O; Nle = CCCC[C@H](N)C(=O)O; Orn = NCCC[C@H](N)C(=O)O; Dab = NCC[C@H](N)C(=O)O; Dap = NC[C@H](N)C(=O)O

How the values were obtained:
Assay type in all cases: cell-based
[1] = system: human red blood cells (hRBC); assay: Hemolysis of human red blood cells
Method in brief: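 Percent hemolysis = OD540 of peptide-treated supernatant relative to the 2.5% Triton X-100 (100%) control, PBS containing 0.001% acetic acid defining 0%. Peptides tested at 100 μg/mL against 20% (v/v) washed human RBC, 1 h, 37 °C, 300 rpm.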

[2] = system: Klebsiella pneumoniae 968733
[3] = system: Acinetobacter baumannii 872842
[4] = system: Klebsiella pneumoniae SSI #3010
Method in brief: (§1)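 MIC in μg/mL; CLSI microdilution; cation-adjusted Mueller-Hinton II with Polysorbate 80 (0.002%); 10^6 CFU/mL; 35° C, 18-20 h.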

Escherichia coli 926415 = system: Escherichia coli 926415
[5] = system: Pseudomonas aeruginosa ATCC 27853
Method in brief: as §1

[6] = system: Escherichia coli ATCC 25922
Method in brief: as §1

[7] = system: Acinetobacter baumannii DSM 30008
Method in brief: as §1

[8] = red cells of human, 1 h, 100 μg/mL
[9] = clinical isolate, Mueller-Hinton II broth, P-80 0.002% present

| SMILES | Hemolysis at 100 μg/mL [1, 8] [%] | Klebsiella pneumoniae 968733 MIC [2]; 968733 [µg/mL] | Acinetobacter baumannii 872842 MIC [3]; 872842 [µg/mL] | Klebsiella pneumoniae SSI #3010 MIC ([4]; SSI #3010) [µg/mL] | Escherichia coli 926415 MIC (Escherichia coli 926415; 926415) [µg/mL] | Pseudomonas aeruginosa ATCC 27853 MIC ([5]; ATCC 27853) [µg/mL] | Escherichia coli ATCC 25922 MIC ([6]; ATCC 25922) [µg/mL] | Acinetobacter baumannii DSM 30008 MIC ([7]; DSM 30008) [µg/mL] | Hemolysis at 100 μg/mL ([1]; red cells of human, 1 h, 100) [%] | Hemolysis at 100 μg/mL ([1]; 100 μg/mL, 20% hRBC, 1 h at 37° C.) [%] | Klebsiella pneumoniae 968733 MIC [2, 9] [µg/mL] | Acinetobacter baumannii 872842 MIC [3, 9] [µg/mL] | Klebsiella pneumoniae SSI #3010 MIC ([4]; Mueller-Hinton II broth) [µg/mL] | Escherichia coli 926415 MIC (Escherichia coli 926415; [9]) [µg/mL] | Pseudomonas aeruginosa ATCC 27853 MIC ([5]; Mueller-Hinton II broth) [µg/mL] | Escherichia coli ATCC 25922 MIC ([6]; Mueller-Hinton II broth) [µg/mL] | Acinetobacter baumannii DSM 30008 MIC ([7]; Mueller-Hinton II broth) [µg/mL] |
| --- | --- | --- | --- | --- | --- | --- | --- | --- | --- | --- | --- | --- | --- | --- | --- | --- | --- |
| CCCC[C@@H]1NC(=O)[C@@H]2CCCN2C(=O)[C@H]2CCCN2C(=O)[C@H](CO)NC(=O)[C@H](C)NC(=O)[C@H](C(C)(C)C)NC(=O)[C@@H](NC(=O)[C@H](Cc2c[nH]c3ccccc23)NC(C)=O)CSSC[C@@H](C(=O)N[C@@H](CCN)C(=O)N[C@H](C(=O)N[C@@H](CCN)C(=O)N[C@H]2CCNC(=O)[C@H]([C@@H](C)O)NC(=O)[C@H](CCN)NC(=O)[C@H](CCN)NC(=O)[C@H](CC(C)C)NC(=O)[C@@H](Cc3ccccc3)NC(=O)[C@H](CCN)NC2=O)[C@@H](C)O)NC(=O)[C@H](Cc2ccc(O)cc2)NC(=O)[C@H](CO)NC1=O [Ex. 12] (Ac-WC[Tle]AS[dP]P[Nle]SYC[Dab]T[Dab][Dab][Dab][dF]L[Dab][Dab]T; disulfide 2-11; lactam 15-C) | <1 | 0.5 | 0.125 | 0.125 | 0.125 | 0.5 | 0.125 | 0.0625 | – | – | – | – | – | – | – | – | – |
| CCCC[C@@H]1NC(=O)[C@@H]2CCCN2C(=O)[C@H]2CCCN2C(=O)[C@H](CO)NC(=O)[C@H](C)NC(=O)[C@H](C(C)(C)C)NC(=O)[C@@H](NC(=O)[C@H](Cc2c[nH]c3ccccc23)NC(C)=O)CSSC[C@@H](C(=O)N[C@@H](CCCN)C(=O)N[C@H](C(=O)N[C@@H](CCN)C(=O)N[C@H]2CCNC(=O)[C@H]([C@@H](C)O)NC(=O)[C@H](CCN)NC(=O)[C@H](CCN)NC(=O)[C@H](CC(C)C)NC(=O)[C@@H](Cc3ccccc3)NC(=O)[C@H](CCN)NC2=O)[C@@H](C)O)NC(=O)[C@H](Cc2ccc(O)cc2)NC(=O)[C@H](CO)NC1=O [Ex. 13] (Ac-WC[Tle]AS[dP]P[Nle]SYC[Orn]T[Dab][Dab][Dab][dF]L[Dab][Dab]T; disulfide 2-11; lactam 15-C) | 1 | 1 | 0.25 | 0.5 | 0.5 | 0.5 | 0.5 | 0.125 | – | – | – | – | – | – | – | – | – |
| CCCC[C@@H]1NC(=O)[C@@H]2CCCN2C(=O)[C@H]2CCCN2C(=O)[C@H](CO)NC(=O)[C@H](C)NC(=O)[C@H](C(C)(C)C)NC(=O)[C@@H](NC(=O)[C@H](Cc2c[nH]c3ccccc23)NC(C)=O)CCC(=O)NCC[C@@H](C(=O)N[C@@H](CCN)C(=O)N[C@H](C(=O)N[C@@H](CCN)C(=O)N[C@H]2CCNC(=O)[C@H]([C@@H](C)O)NC(=O)[C@H](CCN)NC(=O)[C@H](CCN)NC(=O)[C@H](CC(C)C)NC(=O)[C@@H](Cc3ccccc3)NC(=O)[C@H](CCN)NC2=O)[C@@H](C)O)NC(=O)[C@H](Cc2ccc(O)cc2)NC(=O)[C@H](CO)NC1=O [Ex. 14] (Ac-WE[Tle]AS[dP]P[Nle]SY[Dab][Dab]T[Dab][Dab][Dab][dF]L[Dab][Dab]T; lactam 2-11, 15-C) | – | 8 | 1 | 1 | 4 | 1 | 0.5 | 0.5 | <1 | – | – | – | – | – | – | – | – |
| CCCC[C@@H]1NC(=O)[C@@H]2CCCN2C(=O)[C@H]2CCCN2C(=O)[C@H](CO)NC(=O)[C@H](C)NC(=O)[C@H](C(C)(C)C)NC(=O)[C@@H](NC(=O)[C@@H](N)Cc2c[nH]c3ccccc23)CSSC[C@@H](C(=O)N[C@@H](CCN)C(=O)N[C@H](C(=O)N[C@@H](CCN)C(=O)N[C@H]2CCNC(=O)[C@H]([C@@H](C)O)NC(=O)[C@H](CCN)NC(=O)[C@H](CCN)NC(=O)[C@H](CC(C)C)NC(=O)[C@@H](CC(C)C)NC(=O)[C@H](CCN)NC2=O)[C@@H](C)O)NC(=O)[C@H](Cc2ccc(O)cc2)NC(=O)[C@H](CO)NC1=O [Ex. 15] (H-WC[Tle]AS[dP]P[Nle]SYC[Dab]T[Dab][Dab][Dab][dL]L[Dab][Dab]T; disulfide 2-11; lactam 15-C) | 1 | 2 | 0.25 | 0.25 | 0.125 | 1 | 0.125 | 0.5 | – | – | – | – | – | – | – | – | – |
| CCCC[C@@H]1NC(=O)[C@@H]2CCCN2C(=O)[C@H]2CCCN2C(=O)[C@H](CO)NC(=O)[C@H](C)NC(=O)[C@H](C(C)(C)C)NC(=O)[C@@H](NC(=O)[C@@H](N)Cc2c[nH]c3ccccc23)CSSC[C@@H](C(=O)N[C@@H](CCN)C(=O)N[C@H](C(=O)N[C@@H](CN)C(=O)N[C@H]2CCNC(=O)[C@H]([C@@H](C)O)NC(=O)[C@H](CCN)NC(=O)[C@H](CCN)NC(=O)[C@H](CC(C)C)NC(=O)[C@@H](Cc3ccccc3)NC(=O)[C@H](CCN)NC2=O)[C@@H](C)O)NC(=O)[C@H](Cc2ccc(O)cc2)NC(=O)[C@H](CO)NC1=O [Ex. 16] (H-WC[Tle]AS[dP]P[Nle]SYC[Dab]T[Dap][Dab][Dab][dF]L[Dab][Dab]T; disulfide 2-11; lactam 15-C) | 3 | 0.375 | 0.25 | 0.25 | 0.125 | 0.25 | 0.5 | 0.25 | – | – | – | – | – | – | – | – | – |
| CCCC[C@@H]1NC(=O)[C@@H]2CCCN2C(=O)[C@@H](C)NC(=O)[C@H](CO)NC(=O)[C@H](C)NC(=O)[C@H](C(C)(C)C)NC(=O)[C@@H](NC(=O)[C@H](Cc2c[nH]c3ccccc23)NC(C)=O)CSSC[C@@H](C(=O)N[C@@H](CCN)C(=O)N[C@H](C(=O)N[C@@H](CCN)C(=O)N[C@H]2CCNC(=O)[C@H]([C@@H](C)O)NC(=O)[C@H](CCN)NC(=O)[C@H](CCN)NC(=O)[C@H](CC(C)C)NC(=O)[C@@H](Cc3ccccc3)NC(=O)[C@H](CCN)NC2=O)[C@@H](C)O)NC(=O)[C@H](Cc2ccc(O)cc2)NC(=O)[C@H](CO)NC1=O [Ex. 17] (Ac-WC[Tle]AS[dA]P[Nle]SYC[Dab]T[Dab][Dab][Dab][dF]L[Dab][Dab]T; disulfide 2-11; lactam 15-C) | 3 | 0.5 | 0.25 | 0.5 | 1.5 | 0.5 | 0.25 | 0.5 | – | – | – | – | – | – | – | – | – |
| CCCC[C@@H]1NC(=O)[C@@H]2CCCN2C(=O)[C@H]2CCCN2C(=O)[C@H]([C@@H](C)O)NC(=O)[C@H](CO)NC(=O)[C@H](C(C)(C)C)NC(=O)[C@@H](NC(=O)[C@H](Cc2c[nH]c3ccccc23)NC(C)=O)CSSC[C@@H](C(=O)N[C@@H](CCN)C(=O)N[C@H](C(=O)N[C@@H](CCN)C(=O)N[C@H]2CCNC(=O)[C@H]([C@@H](C)O)NC(=O)[C@H](CCN)NC(=O)[C@H](CCN)NC(=O)[C@H](CC(C)C)NC(=O)[C@@H](Cc3ccccc3)NC(=O)[C@H](CCN)NC2=O)[C@@H](C)O)NC(=O)[C@H](Cc2ccc(O)cc2)NC(=O)[C@H](C)NC1=O [Ex. 18] (Ac-WC[Tle]ST[dP]P[Nle]AYC[Dab]T[Dab][Dab][Dab][dF]L[Dab][Dab]T; disulfide 2-11; lactam 15-C) | – | – | – | – | – | – | – | – | – | 6 | 0.5 | 1 | 2 | 0.5 | 0.5 | 0.125 | 0.25 |
| CCCC[C@@H]1NC(=O)[C@@H]2CCCN2C(=O)[C@H]2CCCN2C(=O)[C@H](CO)NC(=O)[C@H](C)NC(=O)[C@H](C(C)(C)C)NC(=O)[C@@H](NC(=O)[C@H](Cc2c[nH]c3ccccc23)NC(C)=O)CSSC[C@@H](C(=O)N[C@@H](CCN)C(=O)N[C@H](C(=O)N[C@@H](CN)C(=O)N[C@H]2CCNC(=O)[C@H]([C@@H](C)O)NC(=O)[C@H](CCN)NC(=O)[C@H](CCN)NC(=O)[C@H](CC(C)C)NC(=O)[C@@H](Cc3ccccc3)NC(=O)[C@H](CCN)NC2=O)[C@@H](C)O)NC(=O)[C@H](Cc2ccc(O)cc2)NC(=O)[C@H](CO)NC1=O [Ex. 20] (Ac-WC[Tle]AS[dP]P[Nle]SYC[Dab]T[Dap][Dab][Dab][dF]L[Dab][Dab]T; disulfide 2-11; lactam 15-C) | 1 | 1 | 0.5 | 0.25 | 0.25 | 0.25 | 0.125 | 0.5 | – | – | – | – | – | – | – | – | – |
